# Laboratory results taken from PubChem BioAssay (NCI).
# Several values for one entry are separate records, joined by “and”; a condition that tells them apart may be missing. Equal entries are not always repeated.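 These data come from cells grown in 96-well plates and exposed to compound for 48 hours at five concentrations. GI50 marks 50% less growth. Definition used: TGI = concentration required for complete inhibition of growth.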 Activity calls are given as the source filed them. No stated cut-off is given here; in the data, active means GI50 below about 0.43 µM; inactive means the rest.
# What was measured:
# Experiment in all cases: NCI tumour cell line growth inhibition, 48 h
# [1] = system: HOP-92 NSCLC
# [2] = system: MOLT-4 leukemia
# [3] = system: OVCAR-4 ovarian
# [4] = system: ACHN renal
# [5] = system: M14 melanoma
# [6] = system: SR leukemia
# [7] = system: KM12 colon
# [8] = system: A549 NSCLC
# [9] = system: 786-0 renal
Structure (SMILES),TGI [1],TGI [2],TGI [3],TGI [4],TGI [5],TGI [6],TGI [7],TGI [8],TGI [9],GI50 [1],GI50 [5],outcome [8],outcome [9]
COC(=O)C1=Nc2c(C)nn(-c3ccccc3)c2N=C(c2ccccc2)C1,> 10 µM,> 10 µM,> 10 µM,> 10 µM,> 10 µM,> 10 µM,> 10 µM,> 10 µM,> 10 µM,–,–,–,–
CCOC(=O)C1CCC(=O)N1C(=O)c1ccccc1 (stereo not drawn),> 100 µM,> 100 µM,–,> 100 µM,> 100 µM,> 100 µM,> 100 µM,> 100 µM,> 100 µM,–,–,–,–
O=C(N/N=C/c1ccc(Br)cc1)N/N=C/c1ccc(Br)cc1,–,30.2 µM,5.11 µM,20.8 µM,32.4 µM,17.7 µM,78.2 µM,> 100 µM,13.4 µM,–,–,–,–
O=C1CSC2=NC3=C(COC/C3=C\c3ccc(Br)cc3)C(c3ccc(Br)cc3)N12 (stereo not drawn),> 100 µM,64.2 µM,> 100 µM,> 100 µM,94.6 µM,60.9 µM,> 100 µM,–,> 100 µM,–,–,–,–
COc1ccc(COCC[C@H](C)OC2OC(CO[Si](C)(C)C(C)(C)C)C(OC(=O)CCCN=[N+]=[N-])C(OC(=O)CCCN=[N+]=[N-])C2OC(=O)CCCN=[N+]=[N-])cc1 (stereo partly drawn),> 100 µM,–,> 100 µM,–,> 100 µM,–,> 100 µM,> 100 µM,> 100 µM,–,–,–,–
CC(=O)OCc1c(O)c2c(c(O)c1COC(C)=O)C(=O)C=CC2=O,7.24 µM,15.1 µM,22.7 µM,21.8 µM,23.7 µM,> 100 µM,28.2 µM,35.9 µM,–,–,–,–,–
Cn1c2ccccc2c(=O)c2c(O)cc3c(c21)C=CC1(CCCCC1)O3,> 10 µM,> 10 µM,> 10 µM,> 10 µM,> 10 µM,–,> 10 µM,> 10 µM,> 10 µM,–,–,–,–
C=C1C(O)CC[C@]2(C)C1C1OC(C)(C)O[C@]13CC(=O)C(C)=C([C@H]1OC(C)(C)OC12)C3(C)C (stereo partly drawn),–,> 100 µM,> 100 µM,> 100 µM,–,> 100 µM,> 100 µM,> 100 µM,> 100 µM,–,–,–,–
CCOC(=O)c1nc2cc(C(F)(F)F)ccc2nc1Nc1ccc(C(=O)NC(C(=O)OCC)C(=O)OCC)cc1,58.8 µM,> 100 µM,33.1 µM,63.1 µM,–,> 100 µM,> 100 µM,–,27.6 µM,–,–,–,–
C=Cc1ccccc1C1(O)C=CC(OC)(OC)C=C1,–,10.6 µM,37.2 µM,39 µM,18.5 µM,7.02 µM,19.4 µM,36.9 µM,16.4 µM,–,–,–,–
CCCSc1nc(-c2ccc(OC)cc2)c(C#N)c(=O)n1C1OC(COC(C)=O)C(OC(C)=O)C(OC(C)=O)C1OC(C)=O (stereo not drawn),> 100 µM and 93.7 µM,> 100 µM,> 100 µM,> 100 µM,> 100 µM and 50.2 µM,> 100 µM,> 100 µM,–,–,> 100 µM and 28.2 µM,> 100 µM and 23.1 µM,–,–
CCCCn1c(-c2ccc([N+](=O)[O-])cc2)cs/c1=N/N=C1\C(=O)Nc2ccc(Br)cc21,73.3 µM,46.5 µM,31.8 µM,31.5 µM,27.1 µM,–,38.2 µM,85.8 µM,29.8 µM,–,–,–,–
c1c2c(cc(-n3nnc4c3CCCCCC4)c1-n1nnc3c1CCCCCC3)CCCCCC2,12.6 µM,11 µM,–,20.9 µM,32.8 µM,–,25.8 µM,–,–,–,–,inactive,inactive
CCC(C(=O)C(=O)OC)P1(=O)OC(C)(C)CN1C(C)(C)C (stereo not drawn),–,> 100 µM,> 100 µM,> 100 µM,> 100 µM,> 100 µM,> 100 µM,> 100 µM,> 100 µM,–,–,–,–
COc1nc(C#CC(C)(C)C)nc(OC)n1,–,> 100 µM,35.5 µM,> 100 µM,> 100 µM,79.3 µM,40 µM,> 100 µM,> 100 µM,–,–,–,–
CC(=O)OC1CCC2C3CCc4c(C)ccc(OS(=O)(=O)c5ccccc5)c4C3CCC12C (stereo not drawn),37.9 µM,> 100 µM,88.4 µM,> 100 µM,–,> 100 µM,–,–,36.9 µM,–,–,–,–
CC(=O)OC(Cn1cncn1)(Cn1cncn1)c1ccc(Cl)cc1Cl,> 100 µM,> 100 µM,> 100 µM,–,> 100 µM,–,> 100 µM,> 100 µM,> 100 µM,–,–,–,–
Cc1c2c(OCC3CCCCO3)nn(C)c(=O)c2c(C)n1-c1ccccc1 (stereo not drawn),33.1 µM,> 100 µM,32.8 µM,31.1 µM,34.9 µM,–,40.4 µM,33.7 µM,33.9 µM,–,–,–,–
COC(=O)C1(Cc2ccc3c(c2)CCC3)Cc2ccccc2C1,–,31 µM,62.8 µM,> 100 µM,> 100 µM,> 100 µM,> 100 µM,> 100 µM,> 100 µM,–,–,–,–
CCCCCCCCCc1nn2c(Cc3ccccc3)nnc2s1,–,59.3 µM,54.6 µM,40 µM,38.6 µM,–,57.7 µM,41.5 µM,34.7 µM,–,–,–,–
NS(=O)(=O)c1cccc(NC(=S)NC(=O)Nc2ccc(Cl)c(Cl)c2)c1,54 µM,37.6 µM,76.9 µM,48.7 µM,28.2 µM,–,31.4 µM,61.4 µM,30.3 µM,–,–,–,–
Cc1ccc(C2=CC(=O)/C(=C\C(=O)c3ccc(Cl)cc3)O2)cc1,33.3 µM,> 100 µM,33.5 µM,17.3 µM,39.3 µM,6.1 µM,42.9 µM,–,21.6 µM,–,–,–,–
CN(C)CCNC(=O)c1cccc2nc(-c3ccccc3)oc12,59.4 µM,> 89.5 µM,> 100 µM,–,–,–,> 100 µM,> 100 µM,–,–,–,–,–
COC1CC(OC2CCC3(C)C(=CCC4C3C(OC(C)=O)C(OC(=O)CC(C)C)C3(C)C(C(C)=O)CCC43O)C2)OC(C)C1OC1CC(OC)C(OC2CC(OC)C(OC3OC(C)C(OC4OC(CO)C(O)C(O)C4O)C(OC)C3O)C(C)O2)C(C)O1 (stereo not drawn),> 75 µM,> 75 µM,> 75 µM,> 75 µM,> 75 µM,–,> 75 µM,> 75 µM,> 75 µM,–,–,–,–
CCOC(=O)c1nnsc1NN,> 100 µM,> 100 µM,> 100 µM,> 100 µM,> 100 µM,–,> 100 µM,> 100 µM,> 100 µM,–,–,–,–
O=c1[nH]c(=O)n(C2CC(O)C(CO)O2)cc1OCc1ccccc1 (stereo not drawn),–,> 100 µM,> 100 µM,> 100 µM,> 100 µM,> 100 µM,> 100 µM,> 100 µM,> 100 µM,–,–,–,–
